For 5 molecules, IC50 results are on record in patent US12319655B2, “RAF kinase inhibitors and methods of use thereof” (Deciphera Pharmaceuticals, LLC, priority 2021, dated 2025).

One assay has as its system H2405 cells. As to the kind of experiment: H2405 Cell Proliferation Assay (1). As to conditions: Homo sapiens, NCI-H2405. In kind it is cell-based. The method, then:
H2405 Cell Proliferation Assay (1)
(§1) H2405 cells (catalog #CRL-5994) are obtained from the American Type Culture Collect (ATTC, Manassas, VA). Briefly, cells were grown in RPMI 1640 supplemented with 5% characterized fetal bovine serum (Invitrogen, Carlsbad, CA) and 1% Penicillin/Streptomycin/L-Glutamine at 37° C., 5% CO2, and 95% humidity. Cells are expanded until reaching 70-95% confluency at which point they are sub-cultured or harvested for assay use. A serial dilution of test compound is dispensed into a 96-well black clear bottom plate in triplicate. Three thousand cells are added per well in 200 μL complete growth medium in the 96-well plate. Plates are incubated for 67-72 h at 37° C., 5% CO2, and 95% humidity. At the end of the incubation, 40 μL of a 440 μM solution of resazurin (Sigma, St. Louis, MO) in PBS is added to each well of the plate and plates are incubated for an additional 5-6 h at 37° C., 5% CO2, and 95% humidity. Plates are read on a Synergy2 or equivalent reader (Biotek, Winooski VT) using an excitation of 540 nm and an emission of 600 nm. Data is analyzed using Prism software (GraphPad, San Diego, CA) to calculate IC50 values.

The next assay concerns WM3928 cells. The assay can be described thus: WM3928 Cell Proliferation Assay (1). In kind it is cell-based. The method, then: WM3928 Cell Proliferation Assay (1)
WM3928 cells (#WM3928-01-0001) are obtained from Rockland Immunochemicals Inc (Gilbertsville, PA). Briefly, cells were grown in MCDB 153 medium (Sigma, #M7403, St. Louis, MO) supplemented with 20% Leibovitz's L-15 (ThermoFisher #11415-064, Waltham, MA), 2% heat inactivated fetal bovine serum (ThermoFisher, #A3840001, Waltham, MA), 5 μg/mL Insulin (Bovine Pancreas) (Sigma, #I0516, St. Louis, MO), 1.68 mM Calcium Chloride (Sigma, #C-34006, St. Louis, MO) and 1% Penicillin/Streptomycin/L-Glutamine (ThermoFisher #10378016, Waltham, MA) at 37° C., 5% CO2, and 95% humidity. Cells are expanded until reaching 70-95% confluency at which point they are subcultured or harvested for assay use. A serial dilution of test compound is dispensed into a 96-well black clear bottom plate in triplicate. Three thousand cells are added per well in 200 μL complete growth medium in the 96-well plate. Plates are incubated for 67-72 hours at 37° C., 5% CO2, and 95% humidity. At the end of the incubation, 40 μL of a 440 μM solution of resazurin (Sigma, #199303, St. Louis, MO) in PBS is added to each well of the plate and plates are incubated for an additional 6-7 hours at 37° C., 5% CO2, and 95% humidity. Plates are read on a Synergy2 or equivalent reader (Biotek, Winooski VT) using an excitation of 540 nm and an emission of 600 nm. Data is analyzed using Prism software (GraphPad, San Diego, CA) to calculate IC50 values.

For assay [1], the system named is Miapaca-2 cells. The assay can be described thus: MiaPaca-2 Cell Proliferation Assay (1). Format: cell-based. To be noted: Homo sapiens, MIA PaCa-2, single agent, read-out: MiaPaca2 (1) IC50. As for the experimental part: MiaPaca-2 Cell Proliferation Assay (1)
as §1, with “Miapaca-2 cells” for “H2405 cells”, “(catalog #CRL-1420)” for “(catalog #CRL-5994)”, “in DMEM” for “in RPMI 1640”, “with 10%” for “with 5%”, “Carlsbad, CA), 2.5% New Zealand sourced horse serum” for “Carlsbad, CA)”

A further assay concerns A375 cells. The assay can be described thus: A375 Cell Proliferation Assay (1). As to conditions: Homo sapiens, A-375. Format: cell-based. As for the experimental part: A375 Cell Proliferation Assay (1)
as §1, with “A375 cells” for “H2405 cells”, “(catalog (#CRL-1619)” for “(catalog #CRL-5994)”, “in DMEM High Glucose” for “in RPMI 1640”, “with 10%” for “with 5%”, “triplicate. Two” for “triplicate. Three”, “thousand five hundred” for “thousand”

Assay [2] has as its target A-Raf kinase (SEQ. ID No: 1) (Homo sapiens (Human), UniProt P10398, Y301D/Y302D). The assay can be described thus: Biochemical Assay for A-Raf (1). As to conditions: Table J, assay version (1); read-out: ARAF (1) IC50. The method in brief: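 A-Raf Y301D/Y302D at 5.55 nM phosphorylates 30.1 nM MEK with 1 mM ATP in pH 7.5 Tris buffer, 1% DMSO. Activity was read continuously as NADH oxidation at 340 nm in a pyruvate kinase/lactate dehydrogenase coupled system for 6 h at 30 °C. Rates from 4–5 h were converted to percent inhibition, and IC50 came from a four-parameter fit.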

Assay [3] relates to Miapaca-2 cells. As to the kind of experiment: MiaPaca-2 Combination Cell proliferation Assay (1) with cobimetinib. In kind it is cell-based. To be noted: MiaPaca-2 cell proliferation, read-out: MiaPaca-2 Combo (1) IC50. As for the experimental part: MiaPaca-2 Combination Cell proliferation Assay (1)
Miapaca-2 cells (catalog #CRL-1420) are obtained from the American Type Culture Collect (ATCC, Manassas, VA). Briefly, cells were grown in DMEM supplemented with 10% characterized fetal bovine serum (Invitrogen, Carlsbad, CA), 2.5% New Zealand sourced horse serum and 1% Penicillin/Streptomycin/L-Glutamine at 37° C., 5% CO2, and 95% humidity. Cells are expanded until reaching 70-95% confluency at which point they are subcultured or harvested for assay use. A serial dilution of test compound was dispensed into multiple 96-well black clear bottom plates in triplicate. A serial dilution of complete growth medium containing cobimetinib was prepared at twice the final concentration and 100 μL was dispensed across the test compound titration in triplicate. Three thousand cells are added per well in 100 μL complete growth medium in each 96-well plate. Plates are incubated for 67-72 hours at 37° C., 5% CO2, and 95% humidity. At the end of the incubation, 40 μL of a 440 μM solution of resazurin (Sigma, St. Louis, MO) in PBS is added to each well of the plate and plates are incubated for an additional 5-7 hours at 37° C., 5% CO2, and 95% humidity. Plates are read on a Synergy2 or equivalent reader (Biotek, Winooski VT) using an excitation of 540 nm and an emission of 600 nm. Drug synergy was assessed via BLISS analysis in the Combenefit software (Cancer Research UK Cambridge Institute, Cambridge, UK). Data is analyzed using Prism software (Graphpad, San Diego, CA) to calculate IC50 values. Shifts in test compound IC50 values are reported from top-constrained combination therapy curves.

For assay [4], the target named is C-Raf kinase (SEQ. ID NO: 3) (Homo sapiens (Human), UniProt P04049, Y340D/Y341D). The assay can be described thus: Biochemical Assay for C-Raf (1). As to conditions: Table J, assay version (1); read-out: CRAF (1) IC50. In short, it runs like this: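 Coupled pyruvate kinase/LDH assay tracking NADH oxidation at 340 nm, with 0.43 nM C-Raf, 30.1 nM MEK and 1 mM ATP in pH 7.5 Tris buffer (15 mM MgCl2, 1% DMSO final). Read continuously for 6 h at 30 °C, rate taken from the 4–5 h window. IC50 from four-parameter fit of percent inhibition.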
Chain of C-Raf kinase (SEQ. ID NO: 3) (P04049 307-648 Y340D/Y341D): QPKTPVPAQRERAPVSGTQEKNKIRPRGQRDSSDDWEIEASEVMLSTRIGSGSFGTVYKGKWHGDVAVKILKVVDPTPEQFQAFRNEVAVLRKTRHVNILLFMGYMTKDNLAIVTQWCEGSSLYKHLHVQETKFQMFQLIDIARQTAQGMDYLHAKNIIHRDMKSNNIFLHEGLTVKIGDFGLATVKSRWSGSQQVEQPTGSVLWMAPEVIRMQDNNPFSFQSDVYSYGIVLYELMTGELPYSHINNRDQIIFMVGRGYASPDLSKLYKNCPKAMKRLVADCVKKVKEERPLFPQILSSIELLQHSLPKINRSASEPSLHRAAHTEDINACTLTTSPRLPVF

Assay [5] has as its target B-Raf (V600E) (SEQ. ID NO: 4) kinase (Homo sapiens (Human), UniProt P15056, V600E). The assay can be described thus: Biochemical Assay for B-Raf (V600E) (1). To be noted: Table J, BRAF V600E, assay version (1); read-out: BRAF VE (1) IC50. In short, it runs like this: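 Coupled pyruvate kinase/lactate dehydrogenase assay: 0.03 nM B-Raf V600E, 30.1 nM MEK, 1 mM ATP, pH 7.5 Tris/MgCl2 buffer, 1% DMSO. NADH oxidation followed at 340 nm for 6 h at 30 °C; rate from 3–4 h converted to percent inhibition, IC50 by four-parameter fit.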

The target in assay [6] is B-Raf kinase (SEQ. ID NO: 2) (Homo sapiens (Human), UniProt P15056). As to the kind of experiment: Biochemical Assay for B-Raf (1). To be noted: Table J, assay version (1); read-out: BRAF (1) IC50. In short, it runs like this:
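Continuous PK/LDH-coupled NADH oxidation assay, A340 read for 6 h at 30° C., with 0.13 nM B-Raf, 30.1 nM MEK substrate and 1 mM ATP in Tris pH 7.5, MgCl2, DTT, detergents, 1% DMSO. Rate taken from 4–5 h window; percent inhibition vs no-compound and known-inhibitor controls; four-parameter fit gives IC50.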

The structures appear in SMILES notation.

Chain of A-Raf kinase (SEQ. ID No: 1) (P10398 other isoform, or with tags, fused parts or gaps Y301D (already in the parent)/Y302D (already in the parent)): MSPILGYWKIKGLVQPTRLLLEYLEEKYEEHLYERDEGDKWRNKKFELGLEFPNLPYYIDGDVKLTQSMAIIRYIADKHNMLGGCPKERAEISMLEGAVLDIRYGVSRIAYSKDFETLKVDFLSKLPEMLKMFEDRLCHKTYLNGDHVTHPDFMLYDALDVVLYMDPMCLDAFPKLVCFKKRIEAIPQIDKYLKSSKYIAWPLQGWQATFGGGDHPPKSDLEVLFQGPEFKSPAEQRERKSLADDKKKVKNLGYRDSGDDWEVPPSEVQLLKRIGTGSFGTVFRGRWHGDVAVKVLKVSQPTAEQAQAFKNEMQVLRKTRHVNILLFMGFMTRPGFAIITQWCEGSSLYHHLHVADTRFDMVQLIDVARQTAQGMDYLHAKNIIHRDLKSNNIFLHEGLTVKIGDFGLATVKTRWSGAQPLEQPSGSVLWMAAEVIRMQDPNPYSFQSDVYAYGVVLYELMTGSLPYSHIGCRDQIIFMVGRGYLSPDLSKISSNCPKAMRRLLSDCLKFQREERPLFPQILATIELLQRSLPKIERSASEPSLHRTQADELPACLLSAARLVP
Chain of B-Raf (V600E) (SEQ. ID NO: 4) kinase (P15056 416-766 V600E): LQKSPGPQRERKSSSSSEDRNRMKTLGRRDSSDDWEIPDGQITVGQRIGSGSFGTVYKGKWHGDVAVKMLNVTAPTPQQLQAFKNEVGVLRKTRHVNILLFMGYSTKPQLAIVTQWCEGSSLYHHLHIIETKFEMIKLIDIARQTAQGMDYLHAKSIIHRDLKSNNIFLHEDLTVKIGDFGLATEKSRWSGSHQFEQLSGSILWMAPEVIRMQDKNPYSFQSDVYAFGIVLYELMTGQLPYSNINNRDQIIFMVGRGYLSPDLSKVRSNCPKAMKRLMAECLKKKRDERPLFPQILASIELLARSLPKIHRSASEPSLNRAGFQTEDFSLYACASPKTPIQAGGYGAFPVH
Chain of B-Raf kinase (SEQ. ID NO: 2) (P15056 416-766): as the sequence (P15056 416-766 V600E) above, with E185V counted along it

As for `Cc1ccc(NC(=O)c2cc(C3CC3)n(C)n2)cc1-c1ccnc(-c2ccnc(NC(=O)C3CC3)c2)n1` [Example 236], the IC50 in the assay on H2405 cells lay in the range of 100 to 500 nM; in the assay with WM3928 cells, 500 to 1000 nM; in the assay with Miapaca-2 cells [1], 1000 to 10000 nM; with A375 cells, 1000 to 10000 nM.
Consider `Cc1ccc(NC(=O)c2cnnc(C3CC3)c2)cc1-c1nccc(-c2ccnc(NC(=O)C3CC3)c2)n1` [Example 272], for which the concentration for half-maximal inhibition (IC50) in assay [2] fell in the range of 1000 to 10000 nM; with H2405 cells, 100 to 500 nM; in the assay with WM3928 cells, 100 to 500 nM; in the assay with Miapaca-2 cells [1], 1000 to 10000 nM; in the assay on A375 cells, 1000 to 10000 nM.
`Cc1ccc(NC(=O)c2ccnc(C(C)(C)C#N)c2)cc1-c1cccc(-c2cc(NC(=O)C(C)(C)C)ncn2)c1` [Example 210]: the IC50 with Miapaca-2 cells [3] was 100 to 500 nM; in assay [2], 1000 to 10000 nM; in [4], 500 to 1000 nM; in assay [5] it was at most 100 nM; in assay [6], 500 to 1000 nM.
On to `COC(=O)Nc1cc(-c2cncc(-c3cc(NC(=O)c4ccnc(C(C)(F)F)c4)ccc3C)c2)ncn1` [Example 238], for which the IC50 in the assay on Miapaca-2 cells [3] was 100 to 500 nM; in the assay on H2405 cells, 100 to 500 nM; in the assay with WM3928 cells, at most 100 nM; in the assay with Miapaca-2 cells [1], 1000 to 10000 nM; with A375 cells it was at most 100 nM.
As to `Cc1ccc(NC(=O)c2ccnc(C(F)(F)F)c2)cc1-c1cccc(-c2ccnc(NC(=O)C3CC3)c2)c1` [Example 58], the IC50 was 1000 to 10000 nM in assay [2]; at most 100 nM with H2405 cells; 100 to 500 nM in the assay with WM3928 cells; 1000 to 10000 nM in the assay on Miapaca-2 cells [1]; 100 to 500 nM in the assay on A375 cells.
